Measured values taken from patent US8183239B2, “Substituted piperazines and piperidines as modulators of the neuropeptide Y2 receptor” (Janssen Pharmaceutica NV, priority 2005, dated 2012).
pIC50: −log10 of the molar value.

Target: T1, Y2 receptors (Homo sapiens, UniProt P49146)
T1 construct: endogenous in cells; host or cells: KAN-Ts cells (membranes)
T1 sequence (P49146 1-381): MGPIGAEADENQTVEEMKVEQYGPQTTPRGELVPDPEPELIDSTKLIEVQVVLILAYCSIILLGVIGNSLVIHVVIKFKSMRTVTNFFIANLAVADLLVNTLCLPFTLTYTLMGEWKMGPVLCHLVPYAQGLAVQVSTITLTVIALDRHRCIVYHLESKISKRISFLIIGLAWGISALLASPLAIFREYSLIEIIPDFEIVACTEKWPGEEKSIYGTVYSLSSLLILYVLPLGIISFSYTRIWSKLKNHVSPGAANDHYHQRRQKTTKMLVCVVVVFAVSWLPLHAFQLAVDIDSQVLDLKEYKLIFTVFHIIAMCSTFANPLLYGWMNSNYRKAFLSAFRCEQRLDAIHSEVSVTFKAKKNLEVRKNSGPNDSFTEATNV
Test: Radioligand binding assay ([125I]PYY, KAN-Ts cell membranes)
Conditions: Table 1, [125I]PYY 80 pM, average of results, read-out: IC50
Protocol: Radioligand Binding Assay
KAN-Ts endogenously expressing Y2 receptors were used for the radioligand binding assay. Cells were grown to confluence on 150 cm^2 tissue culture plates, washed with phosphate-buffered saline (PBS), and scraped into 50 mL tubes. After centrifugation, the supernatant was aspirated, and the pellets frozen and stored at −80° C. Thawed pellets were homogenized with a polytron tissue grinder for 15 sec in 20 mM Tris-HCl, 5 mM EDTA. The homogenate was centrifuged at 800×g for 5 min and the collected supernatant was recentrifuged at 25000×g for 25 min. The resulting pellet was resuspended in binding buffer (20 mM HEPES, 120 mM NaCl, 0.22 mM KH2PO4, 1.3 mM CaCl2, 0.8 mM MgSO4). Membranes were incubated with [^125I]PYY (80 pM) in the presence or absence of test compound for 1 h at rt. The reaction was stopped by filtration through GF/C filter plates pre-soaked in 0.3% polyethylenimine and subsequently washed with Tris 50 mM, 5 mM EDTA buffer. Plates were dried for 1 h in a 55° C. oven, scintillation fluid was added and the radioactivity was counted in a Packard TopCount. Specific binding to the NPY receptor subtypes was determined by radioactivity that was bound in the presence of […]. Each binding experiment was repeated three to eight times, each in duplicate. IC50 values (i.e. concentration of unlabelled peptide or antagonist required to compete for 50% of specific binding to the radioligand) were calculated using the GraphPad Prism software (GraphPad Software Inc., San Diego Calif.) with a fit to a sigmoidal dose response curve. Data for compounds tested are presented in Tables 1 and 2 as an average of results obtained.

Structure (SMILES)	pIC50
COC(=O)C(c1ccccc1)N1CCN(c2ccc(NC(=O)c3ccccc3C)cc2F)CC1 (stereo not shown) [Example 62, {4-[2-Fluoro-4-(2-methyl-benzoylamino)-phenyl]-piperazin-1-yl}-phenyl-acetic acid methyl ester]	5.89
CCc1ccccc1C(=O)Nc1ccc(N2CCN(C(C(=O)OC)c3ccccc3)CC2)c(F)c1 (stereo not shown) [Example 63, {4-[4-(2-Ethyl-benzoylamino)-2-fluoro-phenyl]-piperazin-1-yl}-phenyl-acetic acid methyl ester]	6.22
COC(=O)C(c1ccccc1)N1CCN(c2ccc(NC(=O)c3ccccc3C(C)C)cc2F)CC1 (stereo not shown) [Example 64, {4-[2-Fluoro-4-(2-isopropyl-benzoylamino)-phenyl]-piperazin-1-yl}-phenyl-acetic acid methyl ester]	6.00
COC(=O)C(c1ccccc1)N1CCN(c2ccc(NC(=O)c3ccccc3OC)cc2F)CC1 (stereo not shown) [Example 65, {4-[2-Fluoro-4-(2-methoxy-benzoylamino)-phenyl]-piperazin-1-yl}-phenyl-acetic acid methyl ester]	5.89
CNc1ccccc1C(=O)Nc1ccc(N2CCN(C(C(=O)OC)c3ccccc3)CC2)c(F)c1 (stereo not shown) [Example 68, {4-[2-Fluoro-4-(2-methylamino-benzoylamino)-phenyl]-piperazin-1-yl}-phenyl-acetic acid methyl ester]	5.85
CCc1cccc(C(=O)Nc2ccc(N3CCN(C(C(=O)OC)c4ccccc4)CC3)cc2)c1 (stereo not shown) [Example 69, {4-[4-(3-Ethyl-benzoylamino)-phenyl]-piperazin-1-yl}-phenyl-acetic acid methyl ester]	4.60
COC(=O)C(c1ccccc1)N1CCN(c2ccc(NC(=O)c3cccc(C)c3)cc2)CC1 (stereo not shown) [Example 72, {4-[4-(3-Methyl-benzoylamino)-phenyl]-piperazin-1-yl}-phenyl-acetic acid methyl ester]	5.22
COC(=O)C(c1ccccc1)N1CCN(c2ccc(NC(=O)CCC(C)C)cc2F)CC1 (stereo not shown) [Example 78, {4-[2-Fluoro-4-(4-methyl-pentanoylamino)-phenyl]-piperazin-1-yl}-phenyl-acetic acid methyl ester]	6.64
CCCCC(CC)C(=O)Nc1ccc(N2CCN(C(C(=O)OC)c3ccccc3)CC2)c(F)c1 (stereo not shown) [Example 79, {4-[4-(2-Ethyl-hexanoylamino)-2-fluoro-phenyl]-piperazin-1-yl}-phenyl-acetic acid methyl ester]	7.00
CCCCC(CC)C(=O)Nc1ccc(N2CCN(C(C(=O)OC)c3ccccc3)CC2)cc1 (stereo not shown) [Example 82, {4-[4-(2-Ethyl-hexanoylamino)-phenyl]-piperazin-1-yl}-phenyl-acetic acid methyl ester]	6.40
CCCCCC(=O)Nc1ccc(N2CCN(C(C(=O)OC)c3ccccc3)CC2)cc1 (stereo not shown) [Example 83, [4-(4-Hexanoylamino-phenyl)-piperazin-1-yl]-phenyl-acetic acid methyl ester]	5.44
COC(=O)C(c1ccccc1)N1CCN(c2ccc(NC(=O)CCc3ccccc3)cc2)CC1 (stereo not shown) [Example 84, Phenyl-{4-[4-(3-phenyl-propionylamino)-phenyl]-piperazin-1-yl}-acetic acid methyl ester]	5.47
CCCC(C)C(=O)Nc1ccc(N2CCN(C(C(=O)OC)c3ccccc3)CC2)cc1 (stereo not shown) [Example 85, {4-[4-(2-Methyl-pentanoylamino)-phenyl]-piperazin-1-yl}-phenyl-acetic acid methyl ester]	5.89
CCCCC(=O)Nc1ccc(N2CCN(C(C(=O)OC)c3ccccc3)CC2)cc1 (stereo not shown) [Example 86, [4-(4-Pentanoylamino-phenyl)-piperazin-1-yl]-phenyl-acetic acid methyl ester]	5.32
COC(=O)C(c1ccccc1)N1CCN(c2ccc(NC(=O)CCC(C)C)cc2)CC1 (stereo not shown) [Example 87, {4-[4-(4-Methyl-pentanoylamino)-phenyl]-piperazin-1-yl}-phenyl-acetic acid methyl ester]	5.77
CCNC(=O)C(c1ccccc1)N1CCN(c2ccc(NC(=O)CCC(C)C)cc2F)CC1 (stereo not shown) [Example 88, 4-Methyl-pentanoic acid {4-[4-(ethylcarbamoyl-phenyl-methyl)-piperazin-1-yl]-3-fluoro-phenyl}-amide]	6.00

Structure (SMILES)	pIC50
CCCCC(CC)C(=O)Nc1ccc(N2CCN(C(C(=O)NCC)c3ccccc3)CC2)c(F)c1 (stereo not shown) [Example 89, 2-Ethyl-hexanoic acid {4-[4-(ethylcarbamoyl-phenyl-methyl)-piperazin-1-yl]-3-fluoro-phenyl}-amide]	5.99
CCNC(=O)C(c1ccccc1)N1CCN(c2ccc(NC(=O)CCc3ccccc3)cc2F)CC1 (stereo not shown) [Example 90, N-{4-[4-(Ethylcarbamoyl-phenyl-methyl)-piperazin-1-yl]-3-fluoro-phenyl}-3-phenyl-propionamide]	5.01
CCNC(=O)C(c1ccccc1)N1CCN(c2ccc(NC(=O)CCN(CC)CC)cc2F)CC1 (stereo not shown) [Example 91, 3-Diethylamino-N-{4-[4-(ethylcarbamoyl-phenyl-methyl)-piperazin-1-yl]-3-fluoro-phenyl}-propionamide]	5.00
CCNC(=O)C(c1ccccc1)N1CCN(c2ccc(NC(=O)Cc3ccncc3)cc2F)CC1 (stereo not shown) [Example 92, N-Ethyl-2-{4-[2-fluoro-4-(2-pyridin-4-yl-acetylamino)-phenyl]-piperazin-1-yl}-2-phenyl-acetamide]	5.29
CCNC(=O)C(c1ccccc1)N1CCN(c2ccc(NC(=O)C(CC3CCCN3)C(F)(F)F)cc2F)CC1 (stereo not shown) [Example 93, N-{4-[4-(Ethylcarbamoyl-phenyl-methyl)-piperazin-1-yl]-3-fluoro-phenyl}-3,3,3-trifluoro-2-pyrrolidin-2-ylmethyl-propionamide]	5.30
CCNC(=O)C(c1ccccc1)N1CCN(c2ccc(NC(=O)C(CC3CCCCN3)C(F)(F)F)cc2F)CC1 (stereo not shown) [Example 94, N-{4-[4-(Ethylcarbamoyl-phenyl-methyl)-piperazin-1-yl]-3-fluoro-phenyl}-3,3,3-trifluoro-2-piperidin-2-ylmethyl-propionamide]	5.00
CCNC(=O)C(c1ccccc1)N1CCN(c2ccc(NC(=O)CN3CCN(C(C)C)CC3)cc2F)CC1 (stereo not shown) [Example 95, N-Ethyl-2-(4-{2-fluoro-4-[2-(4-isopropyl-piperazin-1-yl)-acetylamino]-phenyl}-piperazin-1-yl)-2-phenyl-acetamide]	5.00
CCNC(=O)C(c1ccccc1)N1CCN(c2ccc(NC(=O)C3CCN3C3CCCCC3)cc2F)CC1 (stereo not shown) [Example 96, 1-Cyclohexyl-azetidine-2-carboxylic acid {4-[4-(ethylcarbamoyl-phenyl-methyl)-piperazin-1-yl]-3-fluoro-phenyl}-amide]	5.05
CCNC(=O)C(c1ccccc1)N1CCN(c2ccc(NC(=O)/C=C\c3ccccc3OC)cc2F)CC1 (stereo not shown) [Example 97, (Z)—N-{4-[4-(Ethylcarbamoyl-phenyl-methyl)-piperazin-1-yl]-3-fluoro-phenyl}-3-(2-methoxy-phenyl)-acryl amide]	5.96
COC(=O)C(c1ccccc1)N1CCN(c2ccc(NC(=O)c3cccnc3)cc2)CC1 (stereo not shown) [Example 98, Phenyl-(4-{4-[(pyridine-3-carbonyl)-amino]-phenyl}-piperazin-1-yl)-acetic acid methyl ester]	4.92
COC(=O)C(c1ccccc1)N1CCN(c2ccc(NC(=O)c3ccccc3I)cc2F)CC1 (stereo not shown) [Example 99, {4-[2-Fluoro-4-(2-iodo-benzoylamino)-phenyl]-piperazin-1-yl}-phenyl-acetic acid methyl ester]	6.60
CCNC(=O)C(c1ccccc1)N1CCN(c2ccc(NC(=O)c3cccnc3Br)cc2F)CC1 (stereo not shown) [Example 100, 2-Bromo-N-{4-[4-(ethylcarbamoyl-phenyl-methyl)-piperazin-1-yl]-3-fluoro-phenyl}-nicotinamide]	6.05
COC(=O)C(c1ccccc1)N1CCN(c2ccc(NC(=O)c3ccco3)cc2)CC1 (stereo not shown) [Example 101, (4-{4-[(Furan-2-carbonyl)-amino]-phenyl}-piperazin-1-yl)-phenyl-acetic acid methyl ester]	4.70
COC(=O)C(c1ccccc1)N1CCN(c2ccc(NC(=O)c3ccoc3)cc2)CC1 (stereo not shown) [Example 102, (4-{4-[(Furan-3-carbonyl)-amino]-phenyl}-piperazin-1-yl)-phenyl-acetic acid methyl ester]	4.70
COC(=O)C(c1ccccc1)N1CCN(c2ccc(NC(=O)c3ccsc3)cc2)CC1 (stereo not shown) [Example 103, Phenyl-(4-{4-[(thiophene-3-carbonyl)-amino]-phenyl}-piperazin-1-yl)-acetic acid methyl ester]	5.60
